{"source": "patent US20230331685A1", "about": "“HERBICIDAL COMPOUNDS AND METHODS OF USE THEREOF” (AG Plenus Ltd, priority 2020, published 2023)", "system": "Eragrostis teff", "experiment": "HTPS pre-emergence application on monocot model plant", "type": "in vivo", "experimental": "The plates were placed in a controlled greenhouse in a random order inside a bath which allows flooding irrigation with tap water supplemented with a fertilizer. Applied compounds were dissolved into a final solution of 50% acetone, 49.9% DDW, 0.1% tween-20. A 96 well plate was used as a stock plate for preparing application solutions for 8 repeats. Each row contained different concentrations per chemical. Maximal concentration for application was 1.5 Kg/Ha and dilution factor is 2.5. Chemical application was performed one day after thinning out in a chemical hood. […] applied on first two true leaves in each well using 12 channel pipettes. Data collection: RGB (red, green, blue) data for green area per well was documented using camera. Data is collected at a few time points during the experiment: one day after thinning and before chemical application, two-, six- or nine-days post application. During the last two documentations, visual phenotyping was performed. Data analysis: Given RGB results and visual phenotype scores, a student t-test conducted to compare between treatment and control performance for continuous data (RGB) and Fisher exact test to analyze the non-continuous data (phenotypic scores). Dose-Response curves are generated for each treatment to infer ED50 and max. inhibition parameters, using treatment's log concentration range as the […] and normalized green area. […] Plate imaging performed at 11 and 18 DAA. RGB data for green area per well was documented and used to extract % inhibition. Dose-Response curves were built for each treatment to infer EC50, EC75 and EC90 parameters, using treatment's log concentration range as the independent variable and normalized green area as the dependent variable. Treatments were compared to controls performance given RGB results and using student's t-test (p-val≤0.05). Compounds 104-154 were applied in either or both pre- and post-emergence mode to either or both monocot and dicot model plants, following the methods described above. The compounds were applied as a gradient of concentrations as listed above, from which the ED50 was calculated."}
{"smiles": "C[C@@H](O)[C@@H](N)CCCCC(=O)O", "note": "[Compound 104, (6S,7R)-6-amino-7-hydroxyoctanoic acid]", "values": [{"measurement": "ED50 (g/ha)", "setting": "dose-response of normalized green area", "value": 35, "unit": "g/ha"}, {"measurement": "Max Inhibition (%)", "setting": "green area (RGB)", "value": 100, "unit": "%"}]}
